Measured values published in patent publication US12077503B2, “Substituted cyclic amides and their use as herbicides” (FMC CORPORATION, priority 2015, dated 2024).

Legend:
Assay type in all cases: in vivo
Kochia (Kochia scoparia) [1] = assay: Test A preemergence; details: for Plant response rating, Kochia: 125 g ai/ha, preemergence, 0 to 100 scale (0 no effect, 100 complete control); for Kochia plant response rating (0 to 100 scale): Preemergence, 500 g ai/ha, 0 is no effect, 100 is complete control
Procedure, shortened: (§1)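 Greenhouse, ~10 d after spray; visual injury vs untreated controls, 0 = no effect, 100 = complete control. Preemergence: directed soil spray over planted seeds. Postemergence: plants 2–10 cm, 1–2 leaf stage. Loam/sand blend. Compound in non-phytotoxic solvent with surfactant.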

[2] = system: barnyardgrass (Echinochloa crus-galli); assay: Test A preemergence; details: for Plant response rating, Barnyardgrass: 125 g ai/ha, preemergence, 0 to 100 scale (0 no effect, 100 complete control); for Barnyardgrass plant response rating (0 to 100 scale): Preemergence, 500 g ai/ha, 0 is no effect, 100 is complete control
Procedure, shortened: as §1

[3] = system: giant foxtail (Setaria faberii); assay: Test A preemergence; details: for Plant response rating, Foxtail, Giant: 125 g ai/ha, preemergence, 0 to 100 scale (0 no effect, 100 complete control); for Foxtail, Giant plant response rating (0 to 100 scale): Preemergence, 500 g ai/ha, 0 is no effect, 100 is complete control
Procedure, shortened: as §1

[4] = system: pigweed (Amaranthus retroflexus); assay: Test A preemergence; details: for Plant response rating, Pigweed: 125 g ai/ha, preemergence, 0 to 100 scale (0 no effect, 100 complete control); for Pigweed plant response rating (0 to 100 scale): Preemergence, 500 g ai/ha, 0 is no effect, 100 is complete control
[5] = system: ragweed (common ragweed, Ambrosia elatior); assay: Test A preemergence; details: for Plant response rating, Ragweed: 125 g ai/ha, preemergence, 0 to 100 scale (0 no effect, 100 complete control)
Procedure, shortened: as §1

[6] = system: ryegrass, Italian (Italian ryegrass, Lolium multiflorum); assay: Test A preemergence; details: for Plant response rating, Ryegrass, Italian: 125 g ai/ha, preemergence, 0 to 100 scale (0 no effect, 100 complete control); for Ryegrass, Italian plant response rating (0 to 100 scale): Preemergence, 500 g ai/ha, 0 is no effect, 100 is complete control
Procedure, shortened: as §1

[7] = system: Galium (catchweed bedstraw, Galium aparine); assay: Test A postemergence
Procedure, shortened: as §1

Kochia (Kochia scoparia) [8] = assay: Test A postemergence
Procedure, shortened: as §1

[9] = system: barnyardgrass (Echinochloa crus-galli); assay: Test A postemergence
Procedure, shortened: as §1

[10] = system: blackgrass (Alopecurus myosuroides); assay: Test A postemergence
Procedure, shortened: as §1

corn (Zea mays) = assay: Test A postemergence
Procedure, shortened: as §1

[11] = system: giant foxtail (Setaria faberii); assay: Test A postemergence
Procedure, shortened: as §1

[12] = system: pigweed (Amaranthus retroflexus); assay: Test A postemergence
Procedure, shortened: as §1

[13] = system: ragweed (common ragweed, Ambrosia elatior); assay: Test A postemergence
Procedure, shortened: as §1

[14] = system: ryegrass, Italian (Italian ryegrass, Lolium multiflorum); assay: Test A postemergence
Procedure, shortened: as §1

[15] = system: wheat (Triticum aestivum); assay: Test A postemergence
Procedure, shortened: as §1

[16] = system: barnyardgrass (Echinochloa crus-galli); assay: Test B flooded paddy test; details: Flood, 0 to 100 scale where 0 is no effect and 100 is complete control, 13 to 15 d
Procedure, shortened: (§2)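 Plants at 2-leaf stage flooded to 3 cm above soil, with compounds applied directly to paddy water and that depth maintained. Plants kept in greenhouse 13–15 d. Visual rating versus controls on a 0 (no effect) to 100 (complete control) scale.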

[17] = system: ducksalad (Heteranthera limosa); assay: Test B flooded paddy test; details: Flood, 0 to 100 scale where 0 is no effect and 100 is complete control, 13 to 15 d
Procedure, shortened: as §2

rice (Oryra sativa) = assay: Test B flooded paddy test; details: Flood, 0 to 100 scale where 0 is no effect and 100 is complete control, 13 to 15 d
Procedure, shortened: as §2

[18] = system: sedge, umbrella (small-flower umbrella sedge, Cyperus difformis); assay: Test B flooded paddy test; details: Flood, 0 to 100 scale where 0 is no effect and 100 is complete control, 13 to 15 d
Procedure, shortened: as §2

[19] = 125 g ai/ha, postemergence, visual injury rating on 0 to 100 scale (0 no effect, 100 complete control), approx. 10 d
[20] = 500 g ai/ha, postemergence, 0 to 100 scale, 0 no effect, 100 complete control
[21] = Postemergence, 125 g ai/ha, visual injury, 0 to 100 scale (0 no effect, 100 complete control), approx. 10 d

Row | SMILES | Plant response rating, Kochia (Kochia (Kochia scoparia) [1]) | Kochia plant response rating (0 to 100 scale) (Kochia (Kochia scoparia) [1]) | Plant response rating, Barnyardgrass [2] | Barnyardgrass plant response rating (0 to 100 scale) [2] | Plant response rating, Foxtail, Giant [3] | Foxtail, Giant plant response rating (0 to 100 scale) [3] | Plant response rating, Pigweed [4] | Pigweed plant response rating (0 to 100 scale) [4] | Plant response rating, Ragweed [5] | Plant response rating, Ryegrass, Italian [6] | Ryegrass, Italian plant response rating (0 to 100 scale) [6] | Plant response rating, Galium [7, 20] | Plant response rating, Kochia (Kochia (Kochia scoparia) [8]; [20]) | Plant response rating, Barnyardgrass [9, 20] | Plant response rating, Barnyardgrass [9, 21] | Plant response rating, Blackgrass [10, 20] | Plant response rating, Blackgrass [10, 21] | Plant response rating, Corn (corn (Zea mays); [20]) | Plant response rating, Foxtail, Giant [11, 20] | Plant response rating, Pigweed [12, 20] | also measured
1 | COc1c(F)ccc(NC(=O)C2C(=O)NCC2c2cccc(C(F)(F)F)c2)c1F (racemic) [Compound 386] | 0 | 0 | 80 | 80 | 80 | 90 | 0 | 0 | 0 | 30 | 50 | 60 | 0 | 80 | 70 | 70 | 50 | 80 | 80 | 10 | Galium plant response rating [7, 19]: 50; Kochia plant response rating (Kochia (Kochia scoparia) [8]; [19]): 0; Corn plant response rating (corn (Zea mays); [19]): 40; Foxtail, Giant plant response rating [11, 19]: 70; Pigweed plant response rating [12, 19]: 0; Ragweed plant response rating [13, 19]: 0; Plant response rating, Ragweed [13, 20]: 30; Ryegrass, Italian plant response rating [14, 19]: 20; Plant response rating, Ryegrass, Italian [14, 20]: 50; Wheat plant response rating [15, 19]: 30; Plant response rating, Wheat [15, 20]: 50; Plant response rating, Barnyardgrass ([16]; 500 g ai/ha): 60; Plant response rating, Ducksalad ([17]; 500 g ai/ha): 70; Plant response rating, Rice (rice (Oryra sativa); 500 g ai/ha): 15; Plant response rating, Sedge, Umbrella ([18]; 500 g ai/ha): 0
2 | Cc1ccc(C2CNC(=O)C2C(=O)Nc2ccc(F)c(F)c2F)cc1F (racemic) [Compound 371] | 20 | 60 | 90 | 90 | 90 | 90 | 0 | 20 | 30 | 0 | 20 | 30 | 40 | 90 | 80 | 60 | 30 | 60 | 90 | 20 | Ragweed plant response rating (0 to 100 scale) ([5]; Preemergence, 500 g ai/ha, 0 is no effect, 100 is complete control): 40; Plant response rating, Galium [7, 21]: 30; Plant response rating, Kochia (Kochia (Kochia scoparia) [8]; [21]): 20; Plant response rating, Corn (corn (Zea mays); [21]): 20; Plant response rating, Foxtail, Giant [11, 21]: 50; Plant response rating, Pigweed [12, 21]: 0; Plant response rating, Ragweed [13, 20]: 30; Plant response rating, Ragweed [13, 21]: 0; Plant response rating, Ryegrass, Italian [14, 20]: 30; Plant response rating, Ryegrass, Italian [14, 21]: 20; Plant response rating, Wheat [15, 20]: 40; Plant response rating, Wheat [15, 21]: 0; Plant response rating, Barnyardgrass ([16]; 250 g ai/ha): 60; Plant response rating, Ducksalad ([17]; 250 g ai/ha): 100; Plant response rating, Rice (rice (Oryra sativa); 250 g ai/ha): 20; Plant response rating, Sedge, Umbrella ([18]; 250 g ai/ha): 0
